Reference: PubChem BioAssay AID192 (DTP/NCI, 2004)
“And” between values parts separate entries of the source, which are not always exact repeats. Equal values may be shown once. Toxic doses and inconclusive results are not listed.

Tested on: BDF1 mice, B16 melanoma ip, median survival T/C
Assay: NCI In Vivo Anticancer Drug Screen. Data for tumor model B16 Melanoma (intraperitoneal) in B6D2F1 (BDF1) mice
Settings: endpoint: median survival time, higher = longer survival
Procedure, shortened: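 Transplantable tumor model; survival or tumor size measured; reported as T/C, treated over vehicle control.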

[1] = dose: 12.5 mg/kg/injection, schedule: Q01DX009 (ip), vehicle: Klucel (hydroxypropylcellulose) (HPC)
[2] = dose: 1.56 mg/kg/injection, schedule: Q01DX009 (ip), vehicle: Klucel (hydroxypropylcellulose) (HPC)
[3] = dose: 3.12 mg/kg/injection, schedule: Q01DX009 (ip), vehicle: Klucel (hydroxypropylcellulose) (HPC)
[4] = dose: 6.25 mg/kg/injection, schedule: Q01DX009 (ip), vehicle: Klucel (hydroxypropylcellulose) (HPC)
[5] = dose: 100.0 mg/kg/injection, schedule: Q01DX009 (ip), vehicle: Klucel (hydroxypropylcellulose) (HPC)
[6] = dose: 100.0 mg/kg/injection, schedule: Q04DX003 (ip), vehicle: Klucel (hydroxypropylcellulose) (HPC)
[7] = dose: 200.0 mg/kg/injection, schedule: Q04DX003 (ip), vehicle: Klucel (hydroxypropylcellulose) (HPC)
[8] = dose: 400.0 mg/kg/injection, schedule: Q04DX003 (ip), vehicle: Klucel (hydroxypropylcellulose) (HPC)
[9] = dose: 12.5 mg/kg/injection, schedule: Q01DX009 (ip), vehicle: saline with Tween-80
[10] = dose: 25.0 mg/kg/injection, schedule: Q01DX009 (ip), vehicle: saline with Tween-80
[11] = dose: 50.0 mg/kg/injection, schedule: Q01DX009 (ip), vehicle: saline with Tween-80
[12] = dose: 6.25 mg/kg/injection, schedule: Q01DX009 (ip), vehicle: saline with Tween-80
[13] = dose: 100.0 mg/kg/injection, schedule: Q01DX009 (ip), vehicle: saline with Tween-80
[14] = dose: 200.0 mg/kg/injection, schedule: Q01DX009 (ip), vehicle: saline with Tween-80
[15] = dose: 400.0 mg/kg/injection, schedule: Q01DX009 (ip), vehicle: saline with Tween-80

CC(C)NCC(=O)c1ccc(O)c(O)c1
T/C (dose: 5.0 mg/kg/injection, schedule: Q01DX009 (ip), vehicle: saline): 115 % of control | T/C (dose: 10.0 mg/kg/injection, schedule: Q01DX009 (ip), vehicle: saline): 114 % of control | T/C (dose: 20.0 mg/kg/injection, schedule: Q01DX009 (ip), vehicle: saline): 116 % of control | T/C (dose: 40.0 mg/kg/injection, schedule: Q01DX009 (ip), vehicle: saline): 110 % of control | T/C (dose: 100.0 mg/kg/injection, schedule: Q01DX009 (ip), vehicle: saline): 113 % of control | T/C (dose: 100.0 mg/kg/injection, schedule: Q04DX003 (ip), vehicle: saline): 108 % of control | T/C (dose: 200.0 mg/kg/injection, schedule: Q01DX009 (ip), vehicle: saline): 106 % of control | T/C (dose: 200.0 mg/kg/injection, schedule: Q04DX003 (ip), vehicle: saline): 106 % of control | T/C (dose: 400.0 mg/kg/injection, schedule: Q04DX003 (ip), vehicle: saline): 97 % of control

CCNC(C)(C)C(SSS)c1ccco1 (configuration not stated)
T/C [1]: 98 % of control | T/C (dose: 25.0 mg/kg/injection, schedule: Q01DX009 (ip), vehicle: Klucel (hydroxypropylcellulose) (HPC)): 94 % of control | T/C (dose: 50.0 mg/kg/injection, schedule: Q01DX009 (ip), vehicle: Klucel (hydroxypropylcellulose) (HPC)): 104 % of control

CCN(CC)CCCC(C)Nc1c2ccc(Cl)cc2nc2ccc(OC)cc12 (configuration not stated)
T/C (dose: 8.0 mg/kg/injection, schedule: Q01DX009 (ip), vehicle: saline with Tween-80): 94 % of control and 102 % of control | T/C (dose: 8.0 mg/kg/injection, schedule: Q01DX009 (ip), vehicle: saline): 100 % of control | T/C (dose: 8.0 mg/kg/injection, schedule: Q01DX009 (ip), vehicle: suspension in saline): 103 % of control | T/C (dose: 16.0 mg/kg/injection, schedule: Q01DX009 (ip), vehicle: saline with Tween-80): 88 % of control and 107 % of control | T/C (dose: 16.0 mg/kg/injection, schedule: Q01DX009 (ip), vehicle: saline): 102 % of control | T/C (dose: 16.0 mg/kg/injection, schedule: Q01DX009 (ip), vehicle: suspension in saline): 105 % of control | T/C (dose: 20.0 mg/kg/injection, schedule: Q04DX003 (ip), vehicle: saline with Tween-80): 96 % of control | T/C (dose: 32.0 mg/kg/injection, schedule: Q01DX009 (ip), vehicle: saline with Tween-80): 116 % of control and 118 % of control | T/C (dose: 32.0 mg/kg/injection, schedule: Q01DX009 (ip), vehicle: saline): 104 % of control | T/C (dose: 32.0 mg/kg/injection, schedule: Q01DX009 (ip), vehicle: suspension in saline): 107 % of control | T/C (dose: 40.0 mg/kg/injection, schedule: Q04DX003 (ip), vehicle: saline with Tween-80): 105 % of control | T/C (dose: 80.0 mg/kg/injection, schedule: Q04DX003 (ip), vehicle: saline with Tween-80): 101 % of control | T/C (dose: 128.0 mg/kg/injection, schedule: Q01DX009 (ip), vehicle: saline with Tween-80): 152 % of control

C1CCC(OB2OB(OC3CCCCC3)OB(OC3CCCCC3)O2)CC1
T/C (dose: 50.0 mg/kg/injection, schedule: Q01DX009 (ip), vehicle: other): 103 % of control | T/C (dose: 100.0 mg/kg/injection, schedule: Q01DX009 (ip), vehicle: other): 93 % of control | T/C (dose: 200.0 mg/kg/injection, schedule: Q01DX009 (ip), vehicle: other): 102 % of control

OC(CCN1CCCCC1)(c1ccccc1)C1CC2C=CC1C2 (configuration not stated)
T/C (dose: 0.19 mg/kg/injection, schedule: Q01DX009 (ip), vehicle: Klucel (hydroxypropylcellulose) (HPC)): 96 % of control | T/C (dose: 0.39 mg/kg/injection, schedule: Q01DX009 (ip), vehicle: Klucel (hydroxypropylcellulose) (HPC)): 100 % of control | T/C (dose: 0.78 mg/kg/injection, schedule: Q01DX009 (ip), vehicle: Klucel (hydroxypropylcellulose) (HPC)): 103 % of control | T/C [2]: 100 % of control | T/C [3]: 115 % of control | T/C [4]: 94 % of control | T/C [1]: 92 % of control and 96 % of control | T/C [5]: 89 % of control

Nc1c2c(nc3ccccc13)CCCC2
T/C (dose: 0.19 mg/kg/injection, schedule: Q01DX009 (ip), vehicle: saline): 95 % of control | T/C (dose: 0.39 mg/kg/injection, schedule: Q01DX009 (ip), vehicle: saline): 95 % of control | T/C (dose: 0.78 mg/kg/injection, schedule: Q01DX009 (ip), vehicle: saline): 100 % of control | T/C (dose: 1.56 mg/kg/injection, schedule: Q01DX009 (ip), vehicle: saline): 95 % of control | T/C (dose: 3.12 mg/kg/injection, schedule: Q01DX009 (ip), vehicle: saline): 102 % of control | T/C (dose: 6.25 mg/kg/injection, schedule: Q01DX009 (ip), vehicle: saline): 91 % of control | T/C (dose: 12.5 mg/kg/injection, schedule: Q01DX009 (ip), vehicle: saline): 100 % of control

CCNC(=O)Nc1ccc(C)cc1C
T/C [6]: 106 % of control | T/C [7]: 96 % of control | T/C [8]: 106 % of control

O=C(CC(=O)C(F)(F)F)c1csc2ccccc12
T/C [9]: 102 % of control | T/C [10]: 97 % of control | T/C [11]: 114 % of control

CCN(C(=O)Nc1ccccc1)c1ccccc1C
T/C [12]: 100 % of control | T/C [9]: 88 % of control | T/C [10]: 94 % of control

CCC(C)C(NC(=O)c1ccccc1)C(=O)O (configuration not stated)
T/C [12]: 100 % of control | T/C [9]: 101 % of control | T/C [10]: 95 % of control | T/C [11]: 90 % of control and 94 % of control

O=C(CC(O)(C(F)(F)F)C(F)(F)F)c1cccc2ccccc12
T/C [6]: 90 % of control | T/C [7]: 95 % of control | T/C [8]: 102 % of control

CC(Br)C(=O)NC(CO)C(=O)O (configuration not stated)
T/C [13]: 94 % of control | T/C (dose: 100.0 mg/kg/injection, schedule: Q04DX003 (ip), vehicle: saline with Tween-80): 108 % of control | T/C [14]: 99 % of control | T/C (dose: 200.0 mg/kg/injection, schedule: Q04DX003 (ip), vehicle: saline with Tween-80): 113 % of control | T/C [15]: 86 % of control | T/C (dose: 400.0 mg/kg/injection, schedule: Q04DX003 (ip), vehicle: saline with Tween-80): 108 % of control

Nc1n[n+](-c2ccc(Cl)cc2)no1
T/C (dose: 3.12 mg/kg/injection, schedule: Q01DX009 (ip), vehicle: water): 102 % of control | T/C (dose: 6.25 mg/kg/injection, schedule: Q01DX009 (ip), vehicle: water): 107 % of control | T/C (dose: 12.5 mg/kg/injection, schedule: Q01DX009 (ip), vehicle: water): 109 % of control | T/C (dose: 50.0 mg/kg/injection, schedule: Q01DX009 (ip), vehicle: water): 117 % of control

O=[N+]([O-])c1ccc2c(c1)Cc1cc(Br)ccc1-2
T/C [6]: 97 % of control | T/C [7]: 100 % of control | T/C [8]: 100 % of control

O=C1O/C(=C\c2ccccc2)c2c(Br)c(Br)c(Br)c(Br)c21
T/C [11]: 112 % of control | T/C [13]: 107 % of control | T/C [14]: 112 % of control | T/C [15]: 112 % of control

CN(/N=N/c1nc[nH]c1C(N)=O)C(C)(C)C
T/C (dose: 18.75 mg/kg/injection, schedule: Q04DX002 (ip), vehicle: Klucel (hydroxypropylcellulose) (HPC)): 101 % of control | T/C (dose: 37.5 mg/kg/injection, schedule: Q04DX002 (ip), vehicle: Klucel (hydroxypropylcellulose) (HPC)): 107 % of control | T/C (dose: 75.0 mg/kg/injection, schedule: Q04DX002 (ip), vehicle: Klucel (hydroxypropylcellulose) (HPC)): 98 % of control | T/C [5]: 95 % of control | T/C (dose: 150.0 mg/kg/injection, schedule: Q04DX002 (ip), vehicle: Klucel (hydroxypropylcellulose) (HPC)): 101 % of control | T/C (dose: 200.0 mg/kg/injection, schedule: Q01DX009 (ip), vehicle: Klucel (hydroxypropylcellulose) (HPC)): 90 % of control | T/C (dose: 300.0 mg/kg/injection, schedule: Q04DX002 (ip), vehicle: Klucel (hydroxypropylcellulose) (HPC)): 93 % of control | T/C (dose: 400.0 mg/kg/injection, schedule: Q01DX009 (ip), vehicle: Klucel (hydroxypropylcellulose) (HPC)): 104 % of control

CS(=O)(=O)ON1C(=O)c2ccccc2C1=O
T/C [2]: 100 % of control | T/C [3]: 98 % of control | T/C [4]: 94 % of control
